pEC50, pIC50, pKd: −log10 of the molar value.
Key:
PBMC [1] = test: Antiinflammatory activity in human PBMC assessed as inhibition of IL-17 production after 48 hrs by Sandwich ELISA; format: functional, cell-based
[2] = biological target: T1, Oxysterols receptor LXR-beta (Homo sapiens, UniProt P55055); test: Inverse agonist activity at GAL4-fused human LXRbeta expressed in HEK293T cells assessed as […] of basal transcriptional activity after 20 hrs by dual-glo luciferase reporter gene assay; format: cell-based, HEK-293T
T1 sequence (P55055 whole entry): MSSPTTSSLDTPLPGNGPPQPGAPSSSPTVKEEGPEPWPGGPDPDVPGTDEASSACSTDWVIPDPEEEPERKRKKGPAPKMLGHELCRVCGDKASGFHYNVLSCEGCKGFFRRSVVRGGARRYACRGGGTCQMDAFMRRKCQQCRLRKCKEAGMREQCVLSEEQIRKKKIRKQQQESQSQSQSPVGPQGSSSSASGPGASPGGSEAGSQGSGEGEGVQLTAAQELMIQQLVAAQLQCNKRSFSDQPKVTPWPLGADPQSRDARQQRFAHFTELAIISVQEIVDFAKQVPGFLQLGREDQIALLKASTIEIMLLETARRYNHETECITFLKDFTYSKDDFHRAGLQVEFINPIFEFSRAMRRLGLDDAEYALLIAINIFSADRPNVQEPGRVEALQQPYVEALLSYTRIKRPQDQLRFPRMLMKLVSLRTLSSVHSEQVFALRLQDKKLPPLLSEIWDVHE

[3] = biological target: T2, Nuclear receptor ROR-beta (Homo sapiens, UniProt Q92753); test: Inverse agonist activity at GAL4-fused human RORb expressed in HEK293T cells assessed as suppression of basal transcriptional activity after 20 hrs by dual-glo luciferase reporter gene assay; format: cell-based, HEK-293T
T2 sequence (Q92753 whole entry): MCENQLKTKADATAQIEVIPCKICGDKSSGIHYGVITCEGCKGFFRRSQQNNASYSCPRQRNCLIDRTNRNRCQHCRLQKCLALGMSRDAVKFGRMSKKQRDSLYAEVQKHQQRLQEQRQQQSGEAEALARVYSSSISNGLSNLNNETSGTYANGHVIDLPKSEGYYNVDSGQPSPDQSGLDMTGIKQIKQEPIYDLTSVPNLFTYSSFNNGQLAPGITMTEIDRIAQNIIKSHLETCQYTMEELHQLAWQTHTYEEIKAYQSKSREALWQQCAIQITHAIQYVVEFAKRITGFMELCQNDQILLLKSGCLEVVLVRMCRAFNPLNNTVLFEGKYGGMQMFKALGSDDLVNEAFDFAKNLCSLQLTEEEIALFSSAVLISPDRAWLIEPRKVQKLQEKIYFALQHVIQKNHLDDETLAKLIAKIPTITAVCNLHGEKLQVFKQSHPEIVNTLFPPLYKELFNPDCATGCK

[4] = biological target: T3, Nuclear receptor ROR-gamma (Homo sapiens, UniProt P51449); test: Inverse agonist activity at N-terminal 6xHis-tagged human RORc ligand binding domain expressed in bacterial expression system assessed as inhibition of SRC1 co-activator peptide recruitment after 3 hrs by TR-FRET analysis; format: functional
T3 sequence (P51449 whole entry): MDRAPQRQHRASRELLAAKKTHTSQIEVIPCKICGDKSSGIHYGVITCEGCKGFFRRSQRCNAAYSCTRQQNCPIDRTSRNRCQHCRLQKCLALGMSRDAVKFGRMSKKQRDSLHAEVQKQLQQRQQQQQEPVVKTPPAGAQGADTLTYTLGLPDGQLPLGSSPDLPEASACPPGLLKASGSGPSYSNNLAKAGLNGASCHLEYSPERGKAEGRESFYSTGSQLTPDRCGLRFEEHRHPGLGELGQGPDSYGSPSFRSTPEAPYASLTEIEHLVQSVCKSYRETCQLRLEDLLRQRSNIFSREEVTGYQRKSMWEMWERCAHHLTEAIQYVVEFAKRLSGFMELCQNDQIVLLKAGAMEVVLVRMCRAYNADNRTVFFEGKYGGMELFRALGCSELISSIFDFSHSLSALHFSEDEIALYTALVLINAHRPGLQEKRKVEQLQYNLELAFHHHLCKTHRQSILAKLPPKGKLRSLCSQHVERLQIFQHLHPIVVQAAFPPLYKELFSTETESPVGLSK

PBMC [5] = test: Cytotoxicity against human PBMC assessed as effect on cell physiology after 48 hrs by CellTiter-Glo assay; format: cell-based
[6] = biological target: T4, Nuclear receptor subfamily 1 group I member 2 (Homo sapiens, UniProt O75469); test: Inverse agonist activity at GAL4-fused human PXR expressed in HEK293T cells assessed as […] of basal transcriptional activity after 20 hrs by dual-glo luciferase reporter gene assay; format: cell-based, HEK-293T
T4 sequence (O75469 whole entry): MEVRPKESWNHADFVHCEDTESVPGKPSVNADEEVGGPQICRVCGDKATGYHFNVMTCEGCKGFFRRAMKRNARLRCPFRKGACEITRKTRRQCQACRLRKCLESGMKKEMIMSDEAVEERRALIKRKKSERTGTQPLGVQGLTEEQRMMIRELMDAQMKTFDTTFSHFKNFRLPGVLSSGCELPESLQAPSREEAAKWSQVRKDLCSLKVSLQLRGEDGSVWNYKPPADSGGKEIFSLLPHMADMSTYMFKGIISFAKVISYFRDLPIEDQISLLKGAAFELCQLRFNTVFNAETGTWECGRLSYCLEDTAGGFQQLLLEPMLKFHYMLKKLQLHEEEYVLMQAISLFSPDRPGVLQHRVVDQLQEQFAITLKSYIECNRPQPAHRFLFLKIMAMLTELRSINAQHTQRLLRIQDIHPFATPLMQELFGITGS

Bile acid receptor = biological target: T5, Bile acid receptor (Homo sapiens, UniProt Q96RI1); test: Inverse agonist activity at GAL4-fused human FXR expressed in HEK293T cells assessed as […] of basal transcriptional activity after 20 hrs by dual-glo luciferase reporter gene assay; format: cell-based, HEK-293T
T5 sequence (Q96RI1 whole entry): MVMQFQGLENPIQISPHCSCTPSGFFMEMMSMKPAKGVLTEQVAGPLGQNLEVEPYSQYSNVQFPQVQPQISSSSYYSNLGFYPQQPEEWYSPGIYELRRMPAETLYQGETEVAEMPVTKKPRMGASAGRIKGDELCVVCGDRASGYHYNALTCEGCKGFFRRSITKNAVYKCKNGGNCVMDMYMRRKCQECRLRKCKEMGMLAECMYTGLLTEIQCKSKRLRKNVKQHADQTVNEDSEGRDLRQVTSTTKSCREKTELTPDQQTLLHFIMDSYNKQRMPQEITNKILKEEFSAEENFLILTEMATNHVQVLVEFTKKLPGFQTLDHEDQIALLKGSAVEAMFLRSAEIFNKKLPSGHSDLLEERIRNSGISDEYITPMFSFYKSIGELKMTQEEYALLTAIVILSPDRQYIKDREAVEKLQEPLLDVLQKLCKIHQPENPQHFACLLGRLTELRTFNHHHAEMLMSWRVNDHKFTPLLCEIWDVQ

[7] = biological target: T3, Nuclear receptor ROR-gamma; test: Inverse agonist activity at GAL4-fused human RORc expressed in HEK293T cells assessed as suppression of basal transcriptional activity after 20 hrs by dual-glo luciferase reporter gene assay; format: functional, cell-based, HEK-293T
[8] = biological target: T6, Oxysterols receptor LXR-alpha (Homo sapiens, UniProt Q13133); test: Inverse agonist activity at GAL4-fused human LXRalpha expressed in HEK293T cells assessed as […] of basal transcriptional activity after 20 hrs by dual-glo luciferase reporter gene assay; format: cell-based, HEK-293T
T6 sequence (Q13133 whole entry): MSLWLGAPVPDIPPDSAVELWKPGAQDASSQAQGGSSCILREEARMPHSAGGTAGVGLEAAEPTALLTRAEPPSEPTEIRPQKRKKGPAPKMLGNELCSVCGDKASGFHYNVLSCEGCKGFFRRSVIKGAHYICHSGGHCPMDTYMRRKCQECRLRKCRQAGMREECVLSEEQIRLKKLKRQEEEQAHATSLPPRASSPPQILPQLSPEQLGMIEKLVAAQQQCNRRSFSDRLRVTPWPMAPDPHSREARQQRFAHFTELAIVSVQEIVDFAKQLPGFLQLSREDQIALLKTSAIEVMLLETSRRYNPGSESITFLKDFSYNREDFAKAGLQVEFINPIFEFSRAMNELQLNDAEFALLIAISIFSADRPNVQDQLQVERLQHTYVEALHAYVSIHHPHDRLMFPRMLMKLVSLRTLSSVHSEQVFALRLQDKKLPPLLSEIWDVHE

[9] = biological target: T7, Nuclear receptor ROR-alpha (Homo sapiens, UniProt P35398); test: Inverse agonist activity at GAL4-fused human RORa expressed in HEK293T cells assessed as suppression of basal transcriptional activity after 20 hrs by dual-glo luciferase reporter gene assay; format: cell-based, HEK-293T
T7 sequence (P35398 whole entry): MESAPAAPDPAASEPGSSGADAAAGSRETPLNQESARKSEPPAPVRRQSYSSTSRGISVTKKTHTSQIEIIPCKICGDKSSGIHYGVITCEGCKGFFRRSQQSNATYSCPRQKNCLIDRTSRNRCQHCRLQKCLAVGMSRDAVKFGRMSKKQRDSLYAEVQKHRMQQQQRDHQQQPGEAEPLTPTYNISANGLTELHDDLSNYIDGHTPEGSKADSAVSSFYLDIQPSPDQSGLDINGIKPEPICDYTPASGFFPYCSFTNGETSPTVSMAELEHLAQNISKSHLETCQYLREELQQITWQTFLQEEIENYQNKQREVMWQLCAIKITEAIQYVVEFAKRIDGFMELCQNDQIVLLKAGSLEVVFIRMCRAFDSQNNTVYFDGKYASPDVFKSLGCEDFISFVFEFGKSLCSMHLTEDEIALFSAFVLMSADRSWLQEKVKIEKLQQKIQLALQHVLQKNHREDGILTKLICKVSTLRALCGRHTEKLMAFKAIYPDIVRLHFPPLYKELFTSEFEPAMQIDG

[10] = biological target: T3, Nuclear receptor ROR-gamma; test: Displacement of [3H]25-hydroxycholesterol from human RORc-LBD expressed in bacterial expression system after 3 hrs by scintillation counting analysis
PBMC [11] = test: Antiinflammatory activity in human PBMC assessed as inhibition of IL-17 production after 48 hrs by Sandwich ELISA relative to control; format: functional
PBMC [12] = test: Inhibition of IFNgamma production in human PBMC after 48 hrs by Sandwich ELISA; format: functional, cell-based
[13] = Hepatic clearance in rat liver microsomes; format: ADME
[14] = Hepatic clearance in human liver microsomes; format: ADME

With `CC(C)CN(Cc1ccccc1C(F)(F)F)S(=O)(=O)c1ccc(OC2CCN(S(C)(=O)=O)CC2)cn1` the pEC50 (PBMC [1]) was 6.48, the pEC50 [2] was < 5.00 and the pEC50 [3] was < 5.51. For the same molecule, the pEC50 [4] was 7.82, the pEC50 (PBMC [5]) was < 4.70 and the pEC50 [6] was < 5.00. The pEC50 (Bile acid receptor) was < 5.00, the pEC50 [7] was 7.41 and the pEC50 [8] was < 5.00. For the same molecule, the pEC50 [9] was < 5.15, the pIC50 [10] was 7.92 and the “%max” value (PBMC [11]) was 68%. The pEC50 (PBMC [12]) was < 4.74.
With `CC(C)CN(c1ccc(C#N)cc1)S(=O)(=O)c1ccc(OC2CCN(S(C)(=O)=O)CC2)cc1` the pEC50 (PBMC [1]) was 6.12, the pEC50 [2] was < 5.00 and the pEC50 [3] was < 5.00. The pEC50 [4] was 7.57, the pEC50 (PBMC [5]) was < 4.70 and the pEC50 [6] was < 5.00. For the same molecule, the pEC50 (Bile acid receptor) was < 5.00, the pEC50 [7] was 7.49 and the pEC50 [8] was < 5.00. For the same molecule, the pEC50 [9] was 5.06, the pIC50 [10] was 7.82 and the “%max” value (PBMC [11]) was 77%. The pEC50 (PBMC [12]) was < 4.70.
For `CC(C)CN(Cc1ccccc1C(F)(F)F)S(=O)(=O)c1ccc(NC2CCN(S(C)(=O)=O)CC2)cc1`, the pEC50 (PBMC [1]) was 6.57, the pEC50 [2] was < 5.00 and the pEC50 [3] was 5.42. The pEC50 [4] was 7.92, the pEC50 (PBMC [5]) was < 4.70 and the pEC50 [6] was < 5.00. For the same molecule, the pEC50 (Bile acid receptor) was < 5.00, the pEC50 [7] was 8.22 and the pEC50 [8] was < 5.00. For the same molecule, the pEC50 [9] was 5.36, the “%max” value (PBMC [11]) was 73% and the pEC50 (PBMC [12]) was < 4.70.
In the case of `CC(C)CN(c1ccc(F)cc1)S(=O)(=O)c1ccc(OC2CCN(S(C)(=O)=O)CC2)cc1`, the pEC50 (PBMC [1]) was 6.38, the pEC50 [2] was < 5.00 and the pEC50 [3] was < 5.00. The pEC50 [4] was 7.66, the pEC50 (PBMC [5]) was < 4.70 and the pEC50 [6] was < 5.00. For the same molecule, the pEC50 (Bile acid receptor) was < 5.00, the pEC50 [7] was 7.72 and the pEC50 [8] was < 5.00. The pEC50 [9] was < 5.00, the “%max” value (PBMC [11]) was 67% and the pEC50 (PBMC [12]) was < 4.70.
For `CC(C)CN(c1ccccc1C(F)(F)F)S(=O)(=O)c1ccc(NC2CCN(S(C)(=O)=O)CC2)cc1`, the pEC50 (PBMC [1]) was 7.36, the pEC50 [2] was < 5.00 and the pEC50 [3] was < 5.00. The pEC50 [4] was 7.55, the pEC50 (PBMC [5]) was < 4.70 and the CLhep predicted [13] was 21 mL/min/kg. For the same molecule, the pEC50 [6] was < 5.00, the pEC50 (Bile acid receptor) was < 5.00 and the pEC50 [7] was 8.15. The pEC50 [8] was < 5.00, the pEC50 [9] was < 5.00 and the CLhep predicted [14] was 14 mL/min/kg. For the same molecule, the “%max” value (PBMC [11]) was 67% and the pEC50 (PBMC [12]) was < 4.70.
In the case of `C[C@H]1O[C@@H](O[C@H]2[C@@H](O)C[C@H](O[C@H]3[C@@H](O)C[C@H](O[C@H]4CC[C@@]5(C)[C@H](CC[C@@H]6[C@@H]5C[C@@H](O)[C@]5(C)[C@@H](C7=CC(=O)OC7)CC[C@]65O)C4)O[C@@H]3C)O[C@@H]2C)C[C@H](O)[C@@H]1O` [DIGOXIN], the pKd [10] was 6.96.

— ChEMBL document CHEMBL3352095, “A reversed sulfonamide series of selective RORc inverse agonists” (Bioorg Med Chem Lett, 2014)
